Laboratory results reported in patent US20140066385A1, “METHOD FOR TREATING CANCER BY COMBINED USE OF DRUGS” (Astellas Pharma Inc., priority 2011, published 2014).

How the values were obtained:
[1] = tested on: human ovarian cancer (MCAS); assay: Example 12: FK330 with paclitaxel in MCAS tumor-bearing mice; type: in vivo, nude mice; settings: FK330 100 mg/kg bid p.o. + paclitaxel 10 mg/kg/day i.v. (5 days each cycle)
Experimental: The dose of FK330 is expressed in terms of the weight of a simple substance (non-hydrate). Paclitaxel was purchased from LC Laboratories, Inc. (Woburn, Mass., USA), and was used as paclitaxel.
FK330 was suspended (20 mg/mL) in a 0.5% aqueous methyl cellulose solution (0.5% MC), and was orally administered. Paclitaxel was prepared into a stock solution at 10 mg/mL with an ethanol/cremophor solution (mixed at 1:1), and then the stock solution was diluted to 1 mg/mL with physiological saline for injection (Otsuka Pharmaceutical Group) immediately before administration and was intravenously administered through the tail vein.
Human ovary cancer-derived MCAS (JCRB0240) was obtained from Health Science Research Resources Bank (HSRRB) and used. The cells were cultured under the conditions of 37° C. and 5% CO2 by using EMEM medium containing 20% fetal bovine serum (FBS). […]
(§1) The body weight and the tumor diameter, determined by using a digital caliper, were measured twice a week. The tumor volume was calculated from the calculation formula for ellipsoid volume of (major axis×[minor axis]^2×0.5).
The results are expressed as the mean value (Mean)±standard error (SEM). […]

[2] = tested on: human breast cancer (MDA-MB-468); assay: Example 11: FK330 with docetaxel in MDA-MB-468 tumor-bearing mice; type: in vivo, nude mice; settings: FK330 100 mg/kg bid p.o. + docetaxel 15 mg/kg/day i.v. (Day 0 and Day 37)
Experimental: The dose of FK330 is expressed in terms of the weight of a simple substance (non-hydrate). Docetaxel (a docetaxel hydrate injectable preparation (Taxotere (trademark), for intravenous infusion)) was purchased from Sanofi-Aventis SA, and was used as docetaxel.
FK330 was suspended (20 mg/mL) in a 0.5% aqueous methyl cellulose solution (0.5% MC), and was orally administered. Docetaxel was prepared to a concentration of 20 mg/mL with 95% ethanol, and then diluted to 1.5 mg/mL with physiological saline for injection (Otsuka Pharmaceutical Group) immediately before administration and intravenously administered through the tail vein.
Human breast cancer-derived MDA-MB-468 (HTB-132) was obtained from American Type Culture Collection (VA, USA). […]
as §1
The results are expressed as the mean value (Mean)±standard error (SEM). […] Using the actual measured values of the tumor volume at each measurement time point, an unpaired statistical test (Student's t-test) of the difference between two groups was carried out between a single administration group and a combined use group. […]

O=C(/C=C/c1ccc(Cl)cc1)N[C@@H](Cc1ccccn1)C(=O)NCC(=O)N1CCC(Oc2cc(C(F)(F)F)ncn2)CC1 [FK330, N^2-[(2E)-3-(4-chlorophenyl)-2-propenoyl]-N-[2-oxo-2-(4-{[6-(trifluoromethyl)pyrimidin-4-yl]oxy}piperidin-1-yl)ethyl]-3-pyridin-2-yl-L-alaninamide]
tumor volume reduction ratio compared with the paclitaxel-only group ([1]; Day 63, no significant difference): 61.5% | tumor volume reduction ratio compared with the paclitaxel-only group ([1]; Day 91, P<0.05): 86.0% | tumor volume reduction ratio compared with the docetaxel-only group ([2]; Day 37, P<0.05): 46.6% | tumor volume reduction ratio compared with the docetaxel-only group ([2]; Day 65, P<0.01): 76.6%
